Test [1] concerns Jurkat cells with NFAT-LUC reporter (JNL). Kind of test: Activation assay of redirected inhibitory RCAR (PD1 RCAR, FRB-FKBP switch) on PDL1-Fc. Type of test: cell-based. On the procedure:
Jurkat cells with NFAT-LUC reporter (JNL) were grown to the density of 0.5×10^6/ml in Jurkat cell growth media with puromycin at 0.5 μg/ml. For each transfection 3×10^6 cells were spin down at 100 g for 10 minutes. Four μg DNA per construct were used per transfection. Amaxa Nucleofector solution V and supplement I was mixed and 100 μl was added into the tube with DNA construct. The mixture was then added to the cells and transferred to the electroporation cuvette. Electroporation was done under setting X-001 using Amaxa Nucleofector II Device. 0.5 ml of growth media was added immediately after electroporation and the mixture were transferred into 2 ml growth media in one well of the 6-well plate. After two hours, the rapalogue compound at various concentrations was added to cells. The cells were applied to tissue culture plate wells that were coated by the target. Tissue culture plate was coated with 5 μg/ml of PDL1-Fc or IgG1-Fc or any target for 2 hrs at 37° C., then blocked with the blocking buffer (DPBS with 5% serum) for 30 minutes. The transfected cells were added to the target plate with 100 μl per well and incubated further for 16 hrs. Luciferase One Glo reagent 100 μl was added per well. The samples were incubated for 5 min at 37° C. and then luminescence is measured using Envision plate reader. […]

Test [2] deals with biotinylated FKBP, FLAG FRB protein and everolimus. Nature of the test: AlphaLISA direct binding assay, FLAG FRB proteins with biotinylated FKBP and titrated everolimus. Conditions: everolimus serial diluted from 600 nM; 30 nM biotinylated FKBP and each FLAG FRB protein. On the procedure: FRB mutations were also ranked in an alternative assay format. Briefly, FRB proteins incorporating single and double mutations (SEQ ID NO: 319-323) were produced as FLAG tagged constructs in E. coli as described previously. 30 nM (final) of biotinylated FKBP (SEQ ID NO: 324) and each FLAG FRB protein were combined in the presence of everolimus serial diluted 1:3 from a starting final concentration of 600 nM into a 96 well ½ surface flat-bottom plate (PerkinElmer) and incubated for one hour at room temperature. All dilutions were made in 1× AlphaLISA Immunoassay buffer (PerkinElmer). Anti-Flag acceptor beads (PerkinElmer) were added at 10ug/ml final concentration and incubated for one hour at room temperature. Streptavidin donor beads (PerkinElmer), were then added at a final concentration of 40ug/ml and the plate was protected from light and incubated for 30 minutes at room temperature. The plate was then read on the PerkinElmer EnVision Multiplate reader equipped with the Alpha Module using excitation of 680 nm and a 570 nm Emission filter.
For orientation: Bead proximity is the source of the signal in Alpha formats.

Test [3] relates to PI3K/mTOR. Conditions: relatively higher concentrations; cited from earlier work.
Test [4] concerns the target mTOR (Homo sapiens, UniProt P42345). As to conditions: low concentration; cited from earlier work.
Test [5] has as its system JNL cells. Kind of test: Single vector CD19 RCAR constructs in JNL cells, NFAT reporter activation by dimerization molecule. Type of test: cell-based. As to conditions: nM to sub-nM doses. The text has this: The constructs and viral particles were made and tested essentially as described in Example 11. Viral particles were introduced into JNL cells and evaluated for activity essentially as described in Example 1 except that the target was CD19 (as opposed to EGFRviii).
Construct 143775 was introduced into cells and the affect of dimerization molecule concentration on activation evaluated essentially as described in Example 14.

The test system of test [6] is Jurkat cells with NFAT-LUC reporter (JNL). Nature of the test: NFAT activation assay, 9E10 anti-myc scFv RCAR with c-myc peptide multimers. Conditions: myc tags at 100 nM, 18 hr; compared with lower multimers. Type of test: cell-based. On the procedure: Jurkat cells with NFAT-LUC reporter (JNL) were grown to the density of 0.5×10^6/ml in Jurkat cell growth media with puromycin at 0.5 μg/ml. For each transfection 2.5×10^6 cells were spin down at 100 g for 10 minutes. Two μg of DNA per construct were used per transfection. Amaxa Nucleofector solution V and supplement I was mixed and 100 μl was added into the tube with DNA construct. The mixture was then added to the cells and transferred to the electroporation cuvette. Electroporation was done under setting X-001 using Amaxa Nucleofector II Device. 0.5 ml of growth media was added immediately after electroporation and the mixture were transferred into 2 ml growth media in one well of the 6-well plate and incubated for two hours. For myc tags in solution, the cells were distributed into 96-wells, monomer, dimer, trimer or tetramer myc tags or IgG1 Fc were applied at 100 nM. The cells were incubated for 18 hr. Alternatively, tissue culture plate was coated with 100 nM of various myc tags or IgG1 Fc for two hours, blocked with the blocking buffer (DPBS with 5% serum) for 1 hour. The transfected cells were added to the target plate with 100 μl per well and incubated for 18 hrs. Luciferase One Glo reagent 100 μl was added per well. The samples were incubated for 5 min at 37° C. and then luminescence is measured using Envision plate reader.

For the molecule `CO[C@H]1[C@@H](O)[C@H](C)C[C@H](C)/C=C/C=C/C=C(\C)[C@@H](c2c[nH]c3c(C)cccc23)C[C@@H]2CC[C@@H](C)[C@@](O)(O2)C(=O)C(=O)N2CCCC[C@H]2C(=O)O[C@H]([C@H](C)C[C@@H]2CC[C@@H](O)[C@H](OC)C2)C[C@H](O)[C@H](C)/C=C(\C)[C@H]1O` [AP21967], the “induction of NFAT signaling by PDL-1 target” value in test [1] (PD1 RCAR (PD1-ECD-TM-FRB and FKBP-4 1BB-CD3 zeta), 500 nM AP21967) is recorded as “significant induction of signaling”. Also, the “potency in inducing dimerization of the heterodimerization switch, activation of NFAT signaling” value in test [1] (PD1 RCAR, varying concentrations of AP21967, dose response) is reported as “potent even at sub nM concentration”. As to “E2032I: FRB point mutant; SEQ ID NO: 313 (competition assay), SEQ ID NO: 319 (direct binding assay)”, the EC50 (commonly the concentration at which the effect is half-maximal) in test [2] was found to be 2.46 nM.

`Cn1c(=O)n(-c2ccc(C(C)(C)C#N)cc2)c2c3cc(-c4cnc5ccccc5c4)ccc3ncc21` [BEZ235, 2-methyl-2-[4-(3-methyl-2-oxo-8-quinolin-3-yl-2,3-dihydro-imidazo[4,5-c]quinolin-1-yl)-phenyl]-propionitrile]: in test [3], the “concentration of dual PI3K/mTOR inhibition” value was “approximately 500 nmol/L”. For the same molecule, the “concentration at which mTOR inhibition predominates” value in test [4] is “less than 100 nmol/L”. “Wild type FRB: His-FRB SEQ ID NO: 312 in competition assay; His-FLAG-FRB SEQ ID NO: 318 in direct binding assay” showed an EC50 in test [2] of 3.9 nM. The same measure, in the same setting: for “T2098L: FRB point mutant; SEQ ID NO: 315 (competition assay), SEQ ID NO: 321 (direct binding assay)” the value was 1.44 nM. As to `CO[C@H]1C[C@@H]2CC[C@@H](C)[C@@](O)(O2)C(=O)C(=O)N2CCCC[C@H]2C(=O)O[C@H]([C@H](C)C[C@@H]2CC[C@@H](O)[C@H](OC)C2)CC(=O)[C@H](C)/C=C(\C)[C@@H](O)[C@@H](OC)C(=O)[C@H](C)C[C@H](C)/C=C/C=C/C=C/1C` [rapamycin], in test [5], the “activation of RCAR (Construct 143775) over dimerization molecule concentration” value is “effective at a broad range of concentrations”. In test [2], “E2032L: FRB point mutant; SEQ ID NO: 314 (competition assay), SEQ ID NO: 320 (direct binding assay)” showed an EC50 of 2.15 nM.

B1: EEQKLISEEDLGGGGSGGGGSGGGGSEEQKLISEEDLGGGGSGGGGSGGGGSEEQKLISEEDL (peptide)
chain: EEQKLISEEDLGGGGSGGGGSGGGGSEEQKLISEEDLGGGGSGGGGSGGGGSEEQKLISEEDL
For the molecule B1, in test [6], the “NFAT activation by myc tag multimers” value was “Higher NFAT activation”.

B2: EEQKLISEEDLGGGGSGGGGSGGGGSEEQKLISEEDLGGGGSGGGGSGGGGSEEQKLISEEDLGGGGSGGGGSGGGGSEEQKLISEEDL (peptide)
chain: EEQKLISEEDLGGGGSGGGGSGGGGSEEQKLISEEDLGGGGSGGGGSGGGGSEEQKLISEEDLGGGGSGGGGSGGGGSEEQKLISEEDL
As for B2, the “NFAT activation by myc tag multimers” value in test [6] was “Higher NFAT activation”.

These data come from US11578130B2, “Regulatable chimeric antigen receptor” (Novartis AG, priority 2013, dated 2023).
